Data on one compound can be found in ChEMBL document CHEMBL1136686 (Bioorg Med Chem Lett, 2003).

Test [1] concerns the target T1, Androgen receptor (Mus musculus, UniProt P19091).
T1 sequence (P19091 whole entry): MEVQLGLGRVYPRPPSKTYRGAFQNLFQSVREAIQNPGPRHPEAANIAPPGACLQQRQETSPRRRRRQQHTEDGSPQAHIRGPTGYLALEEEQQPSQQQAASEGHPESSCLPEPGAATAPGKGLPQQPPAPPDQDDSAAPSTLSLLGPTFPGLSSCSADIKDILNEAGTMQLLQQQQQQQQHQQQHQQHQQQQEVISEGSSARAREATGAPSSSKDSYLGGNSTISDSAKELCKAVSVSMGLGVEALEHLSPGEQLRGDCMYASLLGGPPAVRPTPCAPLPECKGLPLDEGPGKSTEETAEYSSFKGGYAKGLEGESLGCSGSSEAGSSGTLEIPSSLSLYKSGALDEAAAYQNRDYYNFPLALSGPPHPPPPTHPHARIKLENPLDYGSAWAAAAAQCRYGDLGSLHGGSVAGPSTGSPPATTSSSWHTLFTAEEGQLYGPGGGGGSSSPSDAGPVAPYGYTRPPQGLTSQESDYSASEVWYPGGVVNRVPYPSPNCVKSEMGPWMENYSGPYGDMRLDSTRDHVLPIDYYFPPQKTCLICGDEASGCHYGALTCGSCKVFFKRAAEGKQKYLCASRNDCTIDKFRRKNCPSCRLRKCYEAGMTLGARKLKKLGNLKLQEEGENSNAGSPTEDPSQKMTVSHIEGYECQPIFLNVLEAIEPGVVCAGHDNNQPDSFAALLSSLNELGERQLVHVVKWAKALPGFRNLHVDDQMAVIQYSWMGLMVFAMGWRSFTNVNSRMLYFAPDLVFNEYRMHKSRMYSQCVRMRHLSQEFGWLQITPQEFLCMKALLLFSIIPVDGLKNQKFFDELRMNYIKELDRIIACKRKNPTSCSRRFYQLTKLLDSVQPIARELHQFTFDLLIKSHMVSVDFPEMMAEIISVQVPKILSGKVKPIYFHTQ
The test can be described thus: Inhibitory activity against Androgen receptor.

Test [2] concerns the target T2, Progesterone receptor (Homo sapiens, UniProt P06401).
T2 sequence (P06401 whole entry): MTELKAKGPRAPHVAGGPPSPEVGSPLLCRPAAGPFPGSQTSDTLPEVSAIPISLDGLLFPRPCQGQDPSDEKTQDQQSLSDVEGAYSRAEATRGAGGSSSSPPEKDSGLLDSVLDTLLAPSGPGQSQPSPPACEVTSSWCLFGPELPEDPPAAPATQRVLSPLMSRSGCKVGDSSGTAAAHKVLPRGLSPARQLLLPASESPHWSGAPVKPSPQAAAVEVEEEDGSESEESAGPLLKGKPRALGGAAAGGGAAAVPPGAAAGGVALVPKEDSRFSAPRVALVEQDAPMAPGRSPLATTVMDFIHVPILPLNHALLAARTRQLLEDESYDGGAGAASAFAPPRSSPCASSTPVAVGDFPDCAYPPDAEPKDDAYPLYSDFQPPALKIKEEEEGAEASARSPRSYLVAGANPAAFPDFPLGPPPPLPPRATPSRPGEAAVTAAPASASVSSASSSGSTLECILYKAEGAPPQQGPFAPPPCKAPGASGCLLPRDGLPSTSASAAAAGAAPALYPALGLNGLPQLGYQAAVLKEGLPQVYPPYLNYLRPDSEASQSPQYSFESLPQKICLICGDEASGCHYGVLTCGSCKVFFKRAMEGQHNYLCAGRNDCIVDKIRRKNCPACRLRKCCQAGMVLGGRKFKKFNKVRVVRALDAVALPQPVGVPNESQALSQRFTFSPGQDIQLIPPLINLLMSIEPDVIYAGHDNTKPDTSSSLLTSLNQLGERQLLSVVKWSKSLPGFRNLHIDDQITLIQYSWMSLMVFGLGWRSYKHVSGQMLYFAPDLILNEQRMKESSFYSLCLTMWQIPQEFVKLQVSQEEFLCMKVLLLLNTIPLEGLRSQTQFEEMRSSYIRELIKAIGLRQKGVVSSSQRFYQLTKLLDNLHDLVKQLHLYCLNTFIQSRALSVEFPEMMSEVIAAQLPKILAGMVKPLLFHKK
The experiment in a line: Effective concentration on alkaline phosphatase activity in human T47D breast carcinoma cell line. It is filed as functional, cell-based.

Test [3] deals with T3, Glucocorticoid receptor (Homo sapiens, UniProt P04150).
T3 sequence (P04150 whole entry): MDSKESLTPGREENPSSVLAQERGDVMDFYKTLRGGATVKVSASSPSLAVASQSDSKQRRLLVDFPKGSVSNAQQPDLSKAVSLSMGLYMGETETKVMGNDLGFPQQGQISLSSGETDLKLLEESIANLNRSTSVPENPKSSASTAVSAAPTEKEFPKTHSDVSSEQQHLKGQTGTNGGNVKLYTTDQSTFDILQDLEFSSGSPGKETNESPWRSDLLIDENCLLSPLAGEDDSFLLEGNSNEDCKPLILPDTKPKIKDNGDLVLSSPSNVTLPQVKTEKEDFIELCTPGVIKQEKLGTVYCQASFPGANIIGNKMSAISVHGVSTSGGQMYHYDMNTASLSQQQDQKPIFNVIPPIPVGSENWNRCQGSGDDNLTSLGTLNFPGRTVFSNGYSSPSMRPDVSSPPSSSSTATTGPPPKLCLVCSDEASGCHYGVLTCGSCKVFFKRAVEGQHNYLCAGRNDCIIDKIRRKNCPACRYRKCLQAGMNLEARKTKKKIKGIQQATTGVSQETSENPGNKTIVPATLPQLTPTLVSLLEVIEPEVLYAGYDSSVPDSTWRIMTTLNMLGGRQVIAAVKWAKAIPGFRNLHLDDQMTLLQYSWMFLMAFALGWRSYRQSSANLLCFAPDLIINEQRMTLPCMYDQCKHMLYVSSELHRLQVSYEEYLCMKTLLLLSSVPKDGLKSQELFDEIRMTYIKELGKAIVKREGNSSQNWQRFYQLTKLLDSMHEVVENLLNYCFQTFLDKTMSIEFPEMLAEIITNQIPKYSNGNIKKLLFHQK
The experiment in a line: Inhibitory activity against GR (glucocorticoid receptor).

The target in test [4] is T2, Progesterone receptor. The experiment in a line: Inhibition of [3H]P4 to progesterone receptor (PR) of human T47D breast carcinoma cells. It is filed as cell-based.
Test [5] has as its target T2, Progesterone receptor. The experiment in a line: Effective concentration against PR (progesterone receptor).
Test [6] deals with T1, Androgen receptor. The experiment in a line: Effective concentration against Androgen receptor.
Test [7] concerns the target T3, Glucocorticoid receptor. The test can be described thus: Effective concentration against GR (glucocorticoid receptor).

What is called IC50 is the concentration at which inhibition is half-maximal. Higher therefore signals lower potency. As a reminder, the EC50 is the concentration needed to bring the measured effect to its halfway point. A low value points to an effect from little substance. In the case of `CC1(C)OC(=S)Nc2ccc(-c3csc(C#N)c3)cc21`, the IC50 on Androgen receptor [1] came out at 379 nM; at Glucocorticoid receptor [3], 1320 nM; at Progesterone receptor [4], 3 nM. Moreover, the EC50 at Progesterone receptor [2] is 0.4 nM; at Progesterone receptor [5], 0.38 nM; at Androgen receptor [6] it was > 10000 nM; on Glucocorticoid receptor [7] it was > 10000 nM.
